Assay [1] concerns β-adrenergic. The conditions noted are these: L-form versus D-enantiomer; cited from earlier work.
For assay [2], the system named is K+-depolarized isolated guinea pig ileal segment. Briefly: Cardiovascular calcium antagonism, guinea pig ileum (in vitro). Format: cell-based. As to conditions: inhibition of contractile response to added calcium (20 µg/ml of CaCl), Ca-free physiological salt solution, 37° C, reference agents; for IC100: Cavia porcellus, read-out: ED100. An excerpt: Cardiovascular Calcium Antagonism, Guinea Pig Ileum (in vitro):

Assay [3] deals with potassium-depolarized rat aorta. As to conditions: in vitro; cited from earlier work.

`CC(C)NC[C@H](O)COc1cccc2ccccc12`: the “times more potent than the D-enantiomer” value in assay [1] is recorded as 100 times. `Fc1ccc(C(c2ccc(F)cc2)N2CCN(C/C=C/c3ccccc3)CC2)cc1` [flunarizine]: the IC100 in assay [2] came out at 0.1 µg/mL. Regarding `CC(C)[N+]1(C)[C@@H]2CC[C@H]1CC(OC(=O)C(CO)c1ccccc1)C2.[Br-]` (stereo partly shown) [ipratropium bromide], in assay [2], the ED100 is greater than 2 µg/mL. As for `CN(C)CCOC(c1ccccc1)c1ccccc1` [diphenhydramine], in assay [2], the IC100 came to 1 µg/mL. `C(=C\c1ccccc1)/CN1CCN(C(c2ccccc2)c2ccccc2)CC1` [cinnazrizine]: the ED100 in assay [2] was 1 µg/mL. Consider `CC(COc1ccccc1)NC(C)C(O)c1ccc(O)cc1` (stereo not shown) [isoxuprine], for which the ED100 in assay [2] amounted to 4 µg/mL. As to `CN1CCC(=C2c3ccccc3C=Cc3ccccc32)CC1` [cyproheptadine], in assay [2], the IC100 worked out at 0.025 µg/mL. As to `CCOC(=O)C1=C(COCCN)NC(C)=C(C(=O)OC)C1c1ccccc1Cl` (single isomer, unassigned; isomer 3) [(-) isomer, 3-ethyl 5-methyl (-)-2-[(2-aminoethoxy)methyl]-4-(2-chlorophenyl)-1,4-dihydro-6-methyl-3,5-pyridine-dicarboxylate], in assay [3], the “activity relative to the racemic mixture in antagonizing calcium-induced constriction” value is “twice as active as the racemic mixture”. In the case of `COc1ccc(Cc2nccc3cc(OC)c(OC)cc23)cc1OC` [papaverine], the IC100 in assay [2] is 4 µg/mL. Consider `CC(CN1c2ccccc2Sc2ccccc21)N(C)C` (stereo not shown) [promethazine], for which the IC100 in assay [2] was found to be 0.25 µg/mL.

The values above are taken from EP1614420A2, “Treatment of hypertension, angina and other disorders using (-) amlodipine” (Sepracor Inc., priority 1992, dated 1993).
